According to patent US20080114007A1 (priority 2006, published 2008):

target: CSF-1R (Homo sapiens, UniProt P07333); assay: Peptide (non-phosphorylated) assay, fluorescence polarization competition immunoassay; type: biochemical; details: 0.7 nM CSF-1R, 308 μM SYEGNSYTFIDPTQ peptide, 1 mM ATP, 80 min; mean of at least three determinations; read-out: c-fms Peptide IC50
Summary of the method: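 Human CSF-1R kinase reaction started with ATP and run 80 min at room temperature, then stopped with EDTA. Phosphopeptide detected by fluorescence polarization competition using anti-phosphotyrosine antibody and PTK green tracer after 30 min. Controls used 4% DMSO, with EDTA added before reaction start for positive controls.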

CSF-1R, sequence (P07333 20-972): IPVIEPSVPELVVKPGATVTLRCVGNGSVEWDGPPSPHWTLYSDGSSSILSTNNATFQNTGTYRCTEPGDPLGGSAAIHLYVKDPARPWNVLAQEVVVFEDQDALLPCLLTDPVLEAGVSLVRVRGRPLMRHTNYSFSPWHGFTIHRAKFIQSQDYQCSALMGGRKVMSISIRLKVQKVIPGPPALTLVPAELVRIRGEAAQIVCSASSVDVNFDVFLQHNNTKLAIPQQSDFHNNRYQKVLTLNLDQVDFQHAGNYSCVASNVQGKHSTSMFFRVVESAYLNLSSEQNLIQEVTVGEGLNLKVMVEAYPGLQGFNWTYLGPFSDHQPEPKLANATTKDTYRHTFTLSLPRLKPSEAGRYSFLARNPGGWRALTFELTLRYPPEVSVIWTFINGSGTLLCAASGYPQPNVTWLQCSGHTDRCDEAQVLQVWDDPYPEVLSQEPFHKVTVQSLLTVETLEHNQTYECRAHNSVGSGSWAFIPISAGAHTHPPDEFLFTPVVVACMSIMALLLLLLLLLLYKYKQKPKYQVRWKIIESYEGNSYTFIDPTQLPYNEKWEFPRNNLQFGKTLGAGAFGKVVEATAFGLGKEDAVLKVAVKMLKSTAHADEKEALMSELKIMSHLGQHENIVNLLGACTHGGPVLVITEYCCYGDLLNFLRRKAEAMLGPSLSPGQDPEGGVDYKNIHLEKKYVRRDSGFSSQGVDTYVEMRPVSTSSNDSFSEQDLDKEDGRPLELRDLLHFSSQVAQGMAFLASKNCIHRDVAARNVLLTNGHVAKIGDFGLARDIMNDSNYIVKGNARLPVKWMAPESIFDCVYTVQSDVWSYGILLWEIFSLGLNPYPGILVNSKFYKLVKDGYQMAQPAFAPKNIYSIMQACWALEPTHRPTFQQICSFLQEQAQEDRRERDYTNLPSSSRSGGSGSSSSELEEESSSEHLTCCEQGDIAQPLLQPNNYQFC

Going from `CN1CCN(c2ccc(Nc3ncc4c(=O)c(C(N)=O)cn(Cc5ccccc5)c4n3)cc2)CC1` [Cpd 114, 8-benzyl-2-[4-(4-methyl-piperazin-1-yl)-phenylamino]-5-oxo-5,8-dihydro-pyrido[2,3-d]pyrimidine-6-carboxylic acid amide] to `CONC(=O)c1cn(-c2ccc3c(c2)CCC3)c2nc(Nc3ccc(CN4CCN(C)CC4)cc3)ncc2c1=O` [Cpd 128, 8-indan-5-yl-2-[4-(4-methyl-piperazin-1-ylmethyl)-phenylamino]-5-oxo-5,8-dihydro-pyrido[2,3-d]pyrimidine-6-carboxylic acid methoxy-amide], the IC50 falls from 9.6 nM to 1.1 nM (8.7-fold). The second is the more potent here.

`CNC(=O)c1cn(-c2ccc3c(c2)CCC3)c2nc(Nc3cccc(CCCN(C)C)c3)ncc2c1=O` [Cpd 116, 2-[3-(3-dimethylamino-propyl)-phenylamino]-8-indan-5-yl-5-oxo-5,8-dihydro-pyrido[2,3-d]pyrimidine-6-carboxylic acid methylamide] and `CCNC(=O)c1cn(-c2ccc3c(c2)CCC3)c2nc(Nc3cccc(CCCN(C)C)c3)ncc2c1=O` [Cpd 117, 2-[3-(3-dimethylamino-propyl)-phenylamino]-8-indan-5-yl-5-oxo-5,8-dihydro-pyrido[2,3-d]pyrimidine-6-carboxylic acid ethylamide] are within 1.5-fold of each other in IC50: 5.3 nM for the first, 6.5 nM for the second.

`CN(C)C(=O)Cc1ccc(Nc2ncc3c(=O)c(C(N)=O)cn(-c4ccc5c(c4)CCC5)c3n2)cc1` [Cpd 118, 2-(4-dimethylcarbamoylmethyl-phenylamino)-8-indan-5-yl-5-oxo-5,8-dihydro-pyrido[2,3-d]pyrimidine-6-carboxylic acid amide] and `CN(C)C(=O)c1ccc(Nc2ncc3c(=O)c(C(N)=O)cn(-c4ccc5c(c4)CCC5)c3n2)cc1` [Cpd 123, 2-(4-dimethylcarbamoyl-phenylamino)-8-indan-5-yl-5-oxo-5,8-dihydro-pyrido[2,3-d]pyrimidine-6-carboxylic acid amide] are the same in IC50: 4.5 nM for the first, 4.5 nM for the second.

First: NC(=O)c1cn(-c2ccc3c(c2)CCC3)c2nc(Nc3cccc(C(=O)N4CCOCC4)c3)ncc2c1=O [Cpd 120, 8-indan-5-yl-2-[3-(morpholine-4-carbonyl)-phenylamino]-5-oxo-5,8-dihydro-pyrido[2,3-d]pyrimidine-6-carboxylic acid amide]
Second: NC(=O)c1cn(-c2ccc3c(c2)CCC3)c2nc(Nc3ccc(C(=O)N4CCCC4)cc3)ncc2c1=O [Cpd 122, 8-indan-5-yl-5-oxo-2-[4-(pyrrolidine-1-carbonyl)-phenylamino]-5,8-dihydro-pyrido[2,3-d]pyrimidine-6-carboxylic acid amide]
The IC50 of the first is 2.6-fold higher: 17 nM for the first, 6.6 nM for the second.

Going from `NC(=O)c1cn(-c2ccc3c(c2)CCC3)c2nc(Nc3cccc(N4CCCC4)c3)ncc2c1=O` [Cpd 125, 8-indan-5-yl-5-oxo-2-(3-pyrrolidin-1-yl-phenylamino)-5,8-dihydro-pyrido[2,3-d]pyrimidine-6-carboxylic acid amide] to `CC(=O)N1CCC(c2ccc(Nc3ncc4c(=O)c(C(N)=O)cn(-c5ccc6c(c5)CCC6)c4n3)cc2)CC1` [Cpd 126, 2-[4-(1-acetyl-piperidin-4-yl)-phenylamino]-8-indan-5-yl-5-oxo-5,8-dihydro-pyrido[2,3-d]pyrimidine-6-carboxylic acid amide], the IC50 falls from 5.7 nM to 1.8 nM (3.2-fold).

`CONC(=O)c1cn(-c2ccc3c(c2)CCC3)c2nc(Nc3cccc(S(=O)(=O)N(C)C)c3)ncc2c1=O` [Cpd 129, 2-(3-dimethylsulfamoyl-phenylamino)-8-indan-5-yl-5-oxo-5,8-dihydro-pyrido[2,3-d]pyrimidine-6-carboxylic acid methoxy-amide] and `CONC(=O)c1cn(-c2ccc3c(c2)CCC3)c2nc(Nc3ccc(CCN4CCCC4)cc3)ncc2c1=O` [Cpd 130, 8-indan-5-yl-5-oxo-2-[4-(2-pyrrolidin-1-yl-ethyl)-phenylamino]-5,8-dihydro-pyrido[2,3-d]pyrimidine-6-carboxylic acid methoxy-amide] are within 1.5-fold of each other in IC50: 2.3 nM for the first, 1.6 nM for the second.
